Assay results reported in patent US10595542B2, “Method for producing Swiss-type cheese” (CSK Food Enrichment B.V., priority 2014, dated 2020).

Tests used:
[1] = tested on: Propionibacteria freudenreichii CSK 1205; assay: MIC value determination, 96 wells microtitre plate; format: cell-based, Propionibacterium freudenreichii; details: strain CSK 1205; SLA medium, 30° C. anaerobically 19-24 hours; average of triplicate
Protocol: (§1) The dairy Propionibacteria that are comprised in the starter culture according to the invention are preferably characterized by having a MIC value of 5 mg or higher, more preferably 10 mg or higher, even more preferably 25 mg or higher, even more preferably 50 mg or higher, most preferably even 100 mg or higher for lacticin 3147 per litre of growth medium. Herein, the term MIC has its common meaning of “minimal inhibitory concentration” and is the lowest concentration of an antimicrobial (in the present case lacticin 3147) that will inhibit the visible growth of a microorganism after overnight incubation. MIC values for lacticin 3147 or other bacteriocins are typically determined according to the following test: Propionibacterium strains are grown from an individual colony for 2-3 nights (SLA, 30° C., anaerobically) until turbid. 3% inoculum is subbed into fresh SLA medium and incubated for approx. 7 hours until OD600 0.5 is reached. Of the resulting culture, 10^5 cfu/ml is inoculated into 96 wells microtitreplates containing fresh SLA medium comprising lacticin 3147, or other bacteriocin, ranging in concentrations from 100 mg/L to 0.01 mg/L (high concentrations to the left, low concentrations to the right). Growth following incubation at 30° C. anaerobically for 19-24 hours is visually evaluated by inspecting turbidity from left to right. MIC values are determined according to the last well where no visible growth is observed (average of triplicate determinations). The above protocol under appropriate growth conditions can be used to obtain MIC values of other strains, e.g. of Lactoabacilli, Clostridia, etc., against lacticin 3147 or other bacteriocins such as nisin. […] At the same time MIC values against nisin were at least 20 times lower.
(§2) MIC values were determined according to a protocol from UCC & Piper et al., J. Antimicrob. Chemother. 2009, 61(3), 546. The protocol was adapted for 96 wells mictrotitre plate screening. Indicator strains Lb. delbrueckii ssp. lactis, C99 (commercially available ex CSK Food Enrichment CV) and Propionibacterium freudenreichii, C21 (commercially available ex CSK Food Enrichment CV) were used. Growth media were MRS for C99, sodium lactate agar (SLA) for C21.
(§3) MIC value determination of propionibacteria against lacticin was performed according to the following procedure: Propionibacterium strains were grown, from an individual colony, for 2-3 nights (SLA, 30 deg C., anaerobically) until turbid. 3% inoculum was subbed into fresh SLA medium and incubated for approx. 7 hours until OD600 0.5 was reached. Of the resulting culture, 10^5 cfu/ml was inoculated into 96 wells microtitreplates containing fresh SLA medium comprising lacticin 3147 ranging in concentrations from 100 mg/L to 0.01 mg/L (high concentrations to the left, low concentrations to the right). Visually evaluated growth following incubation at 30° C. anaerobically for 19-24 hours, by inspecting turbidity from left to right (i.e. starting at the highest lacticin concentrations). MIC values were determined according to the last well where no visible growth is observed (average of triplicate determinations). MIC values against nisin have be obtained similarly.

[2] = tested on: Propionibacteria freudenreichii CSK code 21; assay: MIC value determination, 96 wells microtitre plate; format: cell-based, Propionibacterium freudenreichii; details: strain CSK code 21; SLA medium, 30° C. anaerobically 19-24 hours; average of triplicate
Protocol: as §1, §2, §3

[3] = tested on: Propionibacteria freudenreichii DPC 2241; assay: MIC value determination, 96 wells microtitre plate; format: cell-based, Propionibacterium freudenreichii; details: strain DPC 2241; SLA medium, 30° C. anaerobically 19-24 hours; average of triplicate
Protocol: as §1, §2, §3

[4] = tested on: Propionibacteria freudenreichii DPC 4555; assay: MIC value determination, 96 wells microtitre plate; format: cell-based, Propionibacterium freudenreichii; details: strain DPC 4555; SLA medium, 30° C. anaerobically 19-24 hours; average of triplicate
Protocol: as §1, §2, §3

[5] = tested on: different strains of C. tyrobutyricum; assay: MIC value determination against C. tyrobutyricum; format: cell-based, Clostridium tyrobutyricum
Protocol: The dairy Propionibacteria that are comprised in the starter culture according to the invention are preferably characterized by having a MIC value of 5 mg or higher, more preferably 10 mg or higher, even more preferably 25 mg or higher, even more preferably 50 mg or higher, most preferably even 100 mg or higher for lacticin 3147 per litre of growth medium. Herein, the term MIC has its common meaning of “minimal inhibitory concentration” and is the lowest concentration of an antimicrobial (in the present case lacticin 3147) that will inhibit the visible growth of a microorganism after overnight incubation. MIC values for lacticin 3147 or other bacteriocins are typically determined according to the following test: Propionibacterium strains are grown from an individual colony for 2-3 nights (SLA, 30° C., anaerobically) until turbid. 3% inoculum is subbed into fresh SLA medium and incubated for approx. 7 hours until OD600 0.5 is reached. […] Growth following incubation at 30° C. anaerobically for 19-24 hours is visually evaluated by inspecting turbidity from left to right. MIC values are determined according to the last well where no visible growth is observed (average of triplicate determinations). […]
MIC values were determined according to a protocol from UCC & Piper et al., J. Antimicrob. […]

[6] = tested on: Lb. delbrueckii ssp. lactis, C99; assay: MIC value determination of Lactobacilli; format: cell-based, Lactobacillus delbrueckii; details: results not shown
Protocol: as §2
MIC value determination of Lactobacilli against lacticin was performed according to the following procedure: Lactobacillus strains were grown, from an individual colony, overnight (MRS, 37 deg C., anaerobically) until turbid. 3% inoculum was subbed into fresh […] medium and incubated for approx. 7 hours until OD600 0.5 was reached. Of the resulting culture, 10^5 cfu/ml was inoculated into 96 wells microtitreplates containing fresh MRS medium comprising lacticin 3147 ranging in concentrations from 100 mg/L to 0.01 mg/L (high concentrations to the left, low concentrations to the right). Visually evaluated growth following incubation at 37° C. anaerobically for 19-24 hours, by inspecting turbidity from left to right (i.e. starting at the highest lacticin concentrations). MIC values were determined according to the last well where no visible growth is observed (average of triplicate determinations).

Substance | MIC [1] [µg/mL] | MIC [2] [µg/mL] | MIC [3] [µg/mL] | MIC [4] [µg/mL] | MIC values [5] [µg/mL] | lacticin 3147 required to inhibit relative to nisin [6]
lacticin 3147 | >50 | >50 | >50 | 8.3 | 0.4 to 2.5 | Approximately 10 times
nisin [reference compound] | 1.25 | 1.25 | 2.5 | 0.039 | 0.03 to 0.1 | –
